IC50 data for 17 compounds are collected here from patent US11420935B2, “Bicyclic compounds” (Vivace Therapeutics, Inc., priority 2019, dated 2022).

The first assay concerns 8×TBD luciferase reporter (YAP) in HEK293T cells. The assay is described as follows: YAP Reporter Assay (8×TBD firefly luciferase reporter). Format: cell-based. The settings on record: Homo sapiens, HEK-293T, 24 h, read-out: Firefly Luciferase IC50 (μM). Here is the method: HEK293T cells stably transfected with 8×TBD luciferase reporter and pRLTK in 384-well plates were treated with the test compounds, starting from 3 μM (final concentration in assay plate), 1:3 dilution, and 10 points in quadruplicates. Post 24-hr incubation with compounds at 37° C. and 5% CO2, cells were lysed and 8×TBD-driven firefly luciferase and control TK-driven renilla luciferase activities were measured using Promega Dual-Luciferase Reporter Assay System.
Reagents: The reagents used for this study are: DMEM: Invitrogen #11960077, Dual-Glo Luciferase Assay System: Promega-E2980, Puromycin Dihydrochloride: Invitrogen-A1113803, 384-well plate: PerkinElmer-6007480, L-GLUTAMINE: Invitrogen-25030164, Hygromycin B: Invitrogen-10687010, and Penicillin-Streptomycin: Merk-TMS-AB2-C
Media: The media used for this assay were: Culture Medium: DMEM+1 ug/mL puromycin+200 ug/mL hygromycin (with 10% FBS+1 mM L-glutamine); and Assay Medium: DMEM (with 10% FBS+1 mM L-glutamine+1×P/S).
Cell Plating: The appropriate media was warmed at 37° C. by water bath: Culture Medium, Assay Medium, 1*D-PBS, 0.05% trypsin-EDTA. The cells were trypsinized after removing all media, then washed with 1*sterile D-PBS and then with 2 ml 0.05% trypsin-EDTA. The cells were then incubated at RT for one minute. Then 10 ml/75 cm2 flask Assay Medium was added to each flask. Using a 10 ml pipette, the cells were then gently resuspended in the media, until the clumps completely disappeared. The cells were then transferred into 50 ml centrifuge tubes and were centrifuged at 800 rpm for 5 mins. The medium was removed and the cells were resuspended with Assay Medium. An aliquot of cells was used to count the cell density (cells/ml). The cell suspension was then diluted with Assay Medium to a concentration of 6×10^4 cells/ml. 50 ul cells suspension was then plated to 384-well plate (PerkinElmer-6007480), 3×10^3 cells/well and the cells were incubated in an incubator at 37° C., 5% CO2.
Compound Treatment: In the afternoon (incubation of the plate with 3-4 hrs), the test compounds were added by Echo, starting from 3 uM (final concentration in the assay plate), 1:3 dilution, 10 points, quadruplicates. The plate was placed at 37° C., 5% CO2 incubator for 24 hrs.
Detection: The Dual-Glo Luciferase Reagent was prepared by transferring the contents of one bottle of Dual-Glo Luciferase Buffer to one bottle of Dual-Glo Luciferase Substrate to create the Dual-Glo Luciferase Reagent. Mixing was performed by inversion until the substrate was thoroughly dissolved. After mixing, the reagent was aliquoted into 15 ml tubes. In the afternoon (24 hrs post compound treatment), the DMEM+medium in the 384 well plates were aspirated by Microplate Washer.
Measuring firefly luciferase activity: 20 ul Dual-Glo Luciferase Reagent was added to the 384-well plates. The plates were protected from light to prevent interference with the assay. The plates were shaken for 1 min followed centrifuging plates at 1000 rpm for 30 seconds. After waiting at least 10 minutes, the firefly luminescence was measured by Envision.
Measuring renilla luciferase activity: 20 ul Stop-Glo Reagent was added to the 384-well plates. The plates were shaken for 1 min and then centrifuged at 1000 rpm for 30 seconds. After waiting at least 10 minutes, the renilla luminescence was measured by Envision.
Compound IC50 and maximum inhibition on the firefly luciferase and renilla luciferase activities were reported separately.
`CC(C)NC(=O)c1ccc2c(Oc3ccc(Cl)cc3)cccc2c1` [Compound 1, 5-(4-chlorophenoxy)-N-isopropyl-2-naphthamide]: the IC50 (usually the concentration needed to halve the response being measured) is less than 0.1 µM. The same measure, in the same setting: the same measure for `CC(C)NC(=O)c1ccc2c(Oc3cccc(Cl)c3)cccc2c1` [Compound 2, 5-(3-chlorophenoxy)-N-isopropyl-2-naphthamide]: less than 0.1 µM. For the compound `CC(C)NC(=O)c1ccc2c(Oc3ccc(Cl)c(Cl)c3)cccc2c1` [Compound 3, 5-(3,4-dichlorophenoxy)-N-isopropyl-naphthalene-2-carboxamide], the IC50 was less than 0.1 µM. For the compound `CC(C)NC(=O)c1cnc2c(Oc3ccc(C(F)(F)F)cc3)cccc2c1` [Compound 13, N-isopropyl-8-[4-(trifluoromethyl)phenoxy]quinoline-3-carboxamide], the IC50 was less than 0.1 µM.

Staying with this assay, now noted: Homo sapiens, HEK-293T; HEK293T cells stably transfected with 8×TBD luciferase reporter and pRLTK; 24-hr incubation; firefly luciferase activity; read-out: Firefly Luciferase IC50.
As for `CC(C)NC(=O)c1ccc2c(Oc3ccc(C(F)(F)F)cc3)cccc2c1` [Compound 4, N-isopropyl-5-(4-(trifluoromethyl)phenoxy)-2-naphthamide], the IC50 was less than 0.1 µM. For the compound `CS(=O)(=O)NC(=O)c1ccc2c(Oc3ccc(C(F)(F)F)cc3)cccc2c1` [Compound 5, N-(methylsulfonyl)-5-(4-(trifluoromethyl)phenoxy)-2-naphthamide], the IC50 was less than 0.1 µM. Still for that read-out and setting: the figure for `CS(=O)(=O)NC(=O)c1ccc2c(Oc3ccc(Cl)c(Cl)c3)cccc2c1` [Compound 6, 5-(3,4-dichlorophenoxy)-N-(methylsulfonyl)-2-naphthamide] is less than 0.1 µM. The same measure, in the same setting: the figure for `CNS(=O)(=O)c1ccc2c(Oc3ccc(C(F)(F)F)cc3)cccc2c1` [Compound 7, N-methyl-5-(4-(trifluoromethyl)phenoxy)naphthalene-2-sulfonamide] is less than 0.1 µM. Regarding `CC(C)NC(=O)c1ccc2c(Oc3ccc(F)c(F)c3)cccc2c1` [Compound 8, 5-(3,4-difluorophenoxy)-N-isopropyl-2-naphthamide], the IC50 is less than 0.1 µM. The same measure, in the same setting: the figure for `CNS(=O)(=O)c1ccc2c(Oc3ccc(Cl)c(Cl)c3)cccc2c1` [Compound 9, 5-(3,4-dichlorophenoxy)-N-methylnaphthalene-2-sulfonamide] is less than 0.1 µM. Same read-out and setting: the same measure for `CS(=O)(=O)NC(=O)c1ccc2c(Oc3ccc(F)c(F)c3)cccc2c1` [Compound 10, 5-(3,4-difluorophenoxy)-N-(methylsulfonyl)-2-naphthamide]: less than 0.1 µM; for `CC(C)NC(=O)c1ccc2c(Oc3ccc(C(F)(F)F)cc3)nccc2c1` [Compound 11, N-isopropyl-1-[4-(trifluoromethyl)phenoxy]isoquinoline-6-carboxamide]: less than 0.1 µM.

Take `C[C@H](CO)NC(=O)c1ccc2c(Oc3ccc(C(F)(F)F)cc3)nccc2c1` [Compound 12, N-[(1R)-2-hydroxy-1-methyl-ethyl]-1-[4-(trifluoromethyl)phenoxy]isoquinoline-6-carboxamide]: the IC50 is less than 0.1 µM.

With `O=C(NC(CO)c1ccccn1)c1cnc2c(Oc3ccc(C(F)(F)F)cc3)cccc2c1` (centres unmarked) [Compound 14, N-[2-hydroxy-1-(2-pyridyl)ethyl]-8-[4-(trifluoromethyl)phenoxy]quinoline-3-carboxamide], the IC50 was less than 0.1 µM.

As for `C[C@H](CO)NC(=O)c1cnc2c(Oc3ccc(C(F)(F)F)cc3)cccc2c1` [Compound 15, N-[(1R)-2-hydroxy-1-methyl-ethyl]-8-[4-(trifluoromethyl)phenoxy]quinoline-3-carboxamide], the IC50 is less than 0.1 µM.

Consider `COC[C@@H](C)NC(=O)c1cnc2c(Oc3ccc(C(F)(F)F)cc3)cccc2c1` [Compound 16, N-[(1R)-2-methoxy-1-methyl-ethyl]-8-[4-(trifluoromethyl)phenoxy]quinoline-3-carboxamide], for which the IC50 was in the range of 0.1 to 1 µM. Turning to `C[C@@H](NC(=O)c1cnc2c(Oc3ccc(C(F)(F)F)cc3)cccc2c1)c1ccccn1` [Compound 17, N-[(1R)-1-(2-pyridyl)ethyl]-8-[4-(trifluoromethyl)phenoxy]quinoline-3-carboxamide], the IC50 fell in the range of 0.1 to 1 µM.
